Patent publication US9346834B2, “Boron-containing small molecules as antiprotozoal agents” (Anacor Pharmaceuticals, Inc., priority 2009, dated 2016)

Tested on: Leishmania infantum MHOM/MA(BE)/67
Test: Leishmania infantum macrophage screening assay, primary screen
Assay type: cell-based
Details: 120 h, amastigotes in primary peritoneal mouse macrophages, 5 days incubation, % reduction in parasite burden, reference drugs, read-out: IC50 (50% inhibitory concentration)
Description: Parasite and Cell Cultures. Two Leishmania species (L. infantum MHOM/MA(BE)/67 and L. donovani MHOM/ET/67/L82) were used. The strains were maintained in the Golden Hamster (Mesocricetus auratus). Amastigotes were collected from the spleen of an infected donor hamster using three centrifugation purification steps (300 rpm, keeping the supernatant, 2200 rpm, keeping the supernatants and 3500 rpm, keeping the pellet) and spleen parasite burdens were assessed using the Stauber technique (Stauber L A., Exp Parasitol. 18: 1-11 (1966)). Primary peritoneal mouse macrophages were used as host cell and were collected 2 days after peritoneal stimulation with a 2% potato starch suspension. All cultures and assays were conducted at 37° C. under an atmosphere of 5% CO2.
Compound Solutions/Dilutions. Compound stock solutions were prepared in 100% DMSO at 20 mM or mg/ml. Concentrations were standard and expressed in molar concentrations, except for natural products, drug mixtures and if the molecular weight was not known. […]
Drug Sensitivity Assays. […] After 5 days incubation, parasite burdens (mean number of amastigotes/macrophage) were microscopically assessed after staining the cells with a 10% Giemsa solution. The results were expressed as % reduction in parasite burden compared to untreated control wells and an IC50 (50% inhibitory concentration) was calculated. […]

IC50: 4.3 µM
Structure (SMILES): CCCCCCCCCCCCCCCCOP(=O)([O-])OCC[N+](C)(C)C [miltefosin]
